The text below walks through data of patent US9034596B1, “Method for fluorescent staining of cellular and intracellular membranes” (KUWAIT UNIVERSITY, priority 2014, dated 2015).

The test system of data set [1] is cells. Put plainly: harm to cells incubated with the fluorescent probe. As to conditions: 20 μM, shielded from light.
Data set [2] can be described thus: solubility.
Data set [3] is described as follows: storage stability of sterilized probe. As to conditions: refrigerated in the dark.
Data set [4] relates to LS174T cells. Description: fluorescent staining of cellular and intracellular membranes, confocal microscopy. The data set is classed as cell-based. The method, then:
Monolayer cultures were grown in RPMI 1640 medium (Gibco) supplemented with 10% fetal bovine serum (FBS) (Gibco), 1% L-glutamine (Gibco), 1% penicillin/streptomycin (Gibco) as an antibacterial agent and 0.1% amphotericin (Sigma) as an antifungal agent. The cultures were maintained at 37° C. in a CO2 incubator with humidified atmosphere, 5% CO2 and 95% air. Confluent cultures (80-90%) were used for experiments. The cells were then detached by trypsinization and incubation at 37° C. for 2-3 minutes. Fresh medium (10× to trypsin's volume) was added to inhibit trypsin action. The cell suspension was centrifuged at 500 g for three minutes. The supernatant was discarded and the pellet obtained was resuspended in fresh medium. Cells were counted and seeded onto sterile glass cover slips at 5×10^4 cells per slip and incubated overnight to adhere. ZnTnHex-4-PyPCl4 was added and the cells were incubated with the compound in the dark. The cells were then fixed with ice cold absolute ethanol added to a final concentration of 60%, and the plate containing the slips was kept on ice for 10 minutes. The cells were washed with PBS twice and the slips were transferred onto microscopic slides. Vectashield mounting medium from Vector Laboratories was used. The slides were examined using a Zeiss LSM 510 META confocal fluorescence microscope fitted with standard FITC, Rhodamine and DAPI filter sets.
LS174T cells were counted and seeded onto sterile glass cover slips at 5×10^4 cells per slip and incubated over-night to adhere. The dye was added to a final concentration of 0.5-2.5 μM and the cells were incubated with ZnTnHex-4-PyPCl4 in the dark for 15-30 minutes. The cells were then fixed with ice cold absolute ethanol added to a final concentration of 60%, and the plate containing the slips was kept on ice for 10 minutes. The cells were washed with PBS twice and the slips were transferred onto microscopic slides. […] The slides were examined using a Zeiss LSM 510 META confocal fluorescence microscope fitted with standard FITC, Rhodamine and DAPI filter sets.

In the case of `CCCCCC[n+]1ccc(C2=C3C=CC4=[N+]3[Zn]35[n]6c2ccc6C(c2cc[n+](CCCCCC)cc2)=C2C=CC(=[N+]23)C(c2cc[n+](CCCCCC)cc2)=c2ccc([n]25)=C4c2cc[n+](CCCCCC)cc2)cc1` [ZnTnHex-4-PyPCl4, Zn(II) meso-tetrakis(N-n-hexylpyridinium-4-yl)porphyrin tetrachloride], the harm to cells entry in data set [1] is “without harming cells”. For the same molecule, in data set [2], the solubility in water result was “water soluble”. In data set [3], the storage stability entry is reported as “kept for months”. Further, the subcellular localization entry in data set [4] (LSI74T cells, 20 μM, 24 hours pre-incubation in the dark, FIG. 2) was “mitochondria, lysosomes, the ER and the plasma membrane”. Besides, the “time to stain cellular and intracellular membranes” value in data set [4] (concentrations as low as about 0.5-2.5 μM) was at most 15 min. In addition, the “concentration needed for staining membranes” value in data set [4] (living mammalian cells) is 0.5 to 1 µM.
